Measured values from patent US20230212296A1, “SYSTEMS AND METHODS FOR TREATING CANCER” (Arizona Board of Regents on Behalf of the University of …, priority 2020, published 2023).

Tests used:
HIF-1 target genes = test: Hypoxia-inducible gene expression (RT2 profiler array, qRT-PCR) in PC3 Dox-PIM1 cells; assay type: cell-based; details: eleven genes; Dox 24 h, ± AZD1208 for 8 h, normoxia (FIG. 3F)
Method: Hypoxia-responsive gene expression was measured and quantified using RT^2 hypoxia-signaling PCR profiler arrays using the manufacturer's software (Qiagen). All other qRT-PCR reactions were performed using qPCRBIO SyGreen Blue Mix (PCR Biosystems), according to the manufacturer's protocol. Validated primer sets (QuantiTech primer assays; Qiagen) for each of the following genes were purchased to measure gene expression: VEGF-A, angiopoietin like 4 (ANGPTL4), and hexokinase 2 (HK2). HIF1α, PIM1 and Actin primers were purchased from IDT. Actin was used to normalize.

B24 and C34 cell lines = test: MTT cell viability, HIF-1α T455D mutant SW620 lines B24 and C34; assay type: cell-based; details: B24 and C34, increasing doses, 24 h (FIG. 6B)
Method: (§1) Response to drug: Twenty thousand cells were plated onto a 96-well plate and allowed to grow for 24 h prior to addition of the drug, and MTT assays were performed after 24 h incubation with the indicated drugs. For MTT assays, media was removed from the cells by aspiration and 50 μL serum-free DMEM and 50 μL MTT solution were added to each well, and plates were incubated for 4 h at 37° C. After incubation, 150 μL of DMSO was added to each well for 15 minutes and absorbance was read at 540 nm.

SW620 tumors = test: SW620 xenograft in SCID mice; assay type: in vivo
Method: (§2) FIG. 6: Five million parental, B24, or C34 SW620 cells in PBS were injected subcutaneously into the rear flanks of mice. Once the tumors reached a volume of approximately 100 mm^3, the mice were randomized for daily treatment with vehicle or AZD1208 (30 mg/kg/day, p.o.) for up to 2 weeks or until tumor burden reached a maximum volume of 2 cm^3. Tumors were measured every 2-3 days via caliper. Upon sacrifice, tumors were harvested for IHC staining with PIM1, HIF-1α, and CC3, and mRNA was collected for analysis.
(§3) For both, the following formula was used to calculate tumor volume by caliper measurements:
(§4) V=(tumor width)^2×tumor length/2.
(§5) These lines were validated by Sanger sequencing.

PIM1 [1] = target: T1, PIM1 (Homo sapiens, UniProt P11309); assay type: biochemical; design: Recombinant full-length GST-PIM1 was incubated with recombinant GST-HIF-1α; GST; details: in the presence of a PIM inhibitor (AZD1208 100 nM per method) (FIG. 4A)
T1 sequence (P11309 whole entry): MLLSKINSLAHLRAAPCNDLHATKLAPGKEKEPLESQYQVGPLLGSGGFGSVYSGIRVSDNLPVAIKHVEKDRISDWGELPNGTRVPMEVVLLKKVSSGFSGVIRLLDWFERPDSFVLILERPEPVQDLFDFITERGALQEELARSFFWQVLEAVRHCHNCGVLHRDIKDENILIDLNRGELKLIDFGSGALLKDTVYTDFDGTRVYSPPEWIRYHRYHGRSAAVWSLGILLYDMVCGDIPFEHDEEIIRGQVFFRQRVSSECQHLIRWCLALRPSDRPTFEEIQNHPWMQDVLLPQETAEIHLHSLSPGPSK
Method: In vitro: Recombinant full-length GST-PIM1 was incubated with recombinant GST-HIF-1α, GST (negative control), or dephosphorylated myelin basic protein (MBP) in the presence or absence of AZD1208 (100 nM) and ^32P-labeled ATP in kinase assay buffer (20 mM MOPS [pH 7.0] containing 100 mM NaCl, 10 mmol/L MgCl2, and 2 mmol/L dithiothreitol). Reactions were incubated at 37° C. for 60 min prior to the addition of 5× Laemmli sample buffer. Samples were separated by SDS-PAGE and gels were stained with Coomassie prior to autoradiography or preparation for mass spectrometry.

SW620 cells = test: MTT cell viability, parental SW620 cells; assay type: cell-based; details: parental SW620, increasing doses, 24 h (FIG. 6B)
Method: as §1

PIM1 [2] = target: T1, PIM1; assay type: biochemical; details: immunoprecipitated HA-HIF-1α, recombinant PIM1 (FIG. 4D)
Method: In vivo: HA-HIF-1α or its mutant (T455A) were immunoprecipitated with anti-HA antibodies. Immune complexes were washed three times in lysis buffer, then washed twice in 1× kinase buffer and incubated with 0.1 μg of recombinant active PIM1 and 100 μmol/L of ATP for 30 min at 25° C. Reactions were stopped by washing twice in a cold kinase buffer and boiling in 2×SDS loading buffer. The sample was separated on a SDS-polyacrylamide gel and subjected to Western blot analysis with anti-phospho HIF-1α (T455) antibody.

B24 and C34 tumors = test: B24 / C34 (HIF-1α T455D) xenografts in SCID mice; assay type: in vivo
Method: as §2, §3, §4, §5

HIF-1α = test: Immunoblotting of HIF-1α and phospho-T455 in Dox-PIM1 PC3 cells; assay type: cell-based; details: Dox-PIM1 PC3, dox 24 h, AZD1208 3 μM for 6 h (FIG. 3C)
HIF-1 = HIF-1 reporter (HRE-Luc) assay in Dox-PIM1 cells; assay type: cell-based; details: Dox 24 h, then AZD1208 for 4 h, normoxia (FIG. 3D)

Row | Compound | transcript levels of hypoxia-inducible genes upregulated at least 3-fold by PIM1 (HIF-1 target genes) | cell viability (MTT), sensitivity versus parental SW620 (B24 and C34 cell lines) | HIF-1α levels in tumors (IHC) (SW620 tumors; SW620 tumors, AZD1208 30 mg/kg (FIG. 6I)) | apoptosis (cleaved caspase-3 staining) (SW620 tumors; SW620 tumors, AZD1208 30 mg/kg (FIG. 6J)) | expression of pro-angiogenic genes VEGF-A and ANGPT4 in tumor tissue (RT-PCR) (SW620 tumors; SW620 tumors, AZD1208 30 mg/kg (FIG. 6K)) | tumor volume (SW620 tumors; SW620 tumors, AZD1208 30 mg/kg/day p.o. (FIG. 6G)) | tumor vasculature (H&E staining) (SW620 tumors; SW620 xenografts, AZD1208 30 mg/kg (FIG. 6H)) | phosphorylation of HIF-1α by PIM1 (autoradiography) (PIM1 [1]) | cell viability (MTT) (SW620 cells) | phosphorylation of wild-type HIF-1α at Thr455 by PIM1 (PIM1 [2]) | expression of HIF-1 target genes in tumor tissue (RT-PCR) (B24 and C34 tumors; B24 and C34 tumors, AZD1208 30 mg/kg (FIG. 6K)) | HIF-1α levels in tumors (IHC) (B24 and C34 tumors; B24 or C34 tumors, AZD1208 30 mg/kg (FIG. 6I)) | apoptosis (cleaved caspase-3 staining) (B24 and C34 tumors; B24 or C34 tumors, AZD1208 30 mg/kg (FIG. 6J)) | tumor growth (B24 and C34 tumors; B24 or C34 xenografts, AZD1208 30 mg/kg/day p.o. (FIG. 6G)) | tumor vasculature (H&E staining) (B24 and C34 tumors; C34 and B24 tumors, AZD1208 30 mg/kg (FIG. 6H)) | ability of PIM1 to increase HIF-1α protein levels (HIF-1α) | PIM1-induced increase of HIF-1 activity (HRE-Luc normalized to Renilla-Luc) (HIF-1) | kinase assay on immunoprecipitated HA-HIF-1α, western blot with phospho-T455 antibody (HA-HIF-1α (wild-type)) | in vitro kinase assay (32P-ATP autoradiography; mass spectrometry of phosphorylation sites) (recombinant GST-HIF-1α)
1 | N[C@@H]1CCCN(c2c(/C=C3\SC(=O)NC3=O)cccc2-c2ccccc2)C1 [AZD1208] | significantly reduced | less sensitive | significantly reduced | increased | reduced | significantly reduced | disrupted tumor vasculature | phosphorylation was lost | significant and dose-dependent reduction in viability | blocked | no effect | refractory to PIM inhibition | no significant apoptosis was observed | unable to slow the growth | regular vasculature was observed | blocked the ability of PIM1 to increase HIF-1α protein levels | reversed | – | –
2 | recombinant full-length GST-PIM1 | – | – | – | – | – | – | – | – | – | – | – | – | – | – | – | – | – | Wild-type HIF-1α displayed robust phosphorylation at Thr455 by PIM1, which was blocked by AZD1208 | Autoradiography revealed that PIM1 is able to phosphorylate HIF-1α, and phosphorylation was lost in the presence of a PIM inhibitor
